According to patent US20210277246A1, “PROBE FOR DETECTING CARBAPENEM-RESISTANT BACTERIA AND USE THEREOF” (priority 2018, published 2021):

Tests used:
[1] = system: Citrobacter freundii (KPC); assay: MIC of carbapenems for isolates; format: cell-based; conditions: 1 isolate
Escherichia coli (KPC) = assay: MIC of carbapenems for isolates; format: cell-based; conditions: 3 isolates
[2] = system: Klebsiella aerogenes (KPC); assay: MIC of carbapenems for isolates; format: cell-based; conditions: 1 isolate
Klebsiella oxytoca (KPC) = assay: MIC of carbapenems for isolates; format: cell-based; conditions: 1 isolate
[3] = system: Klebsiella pneumoniae (GES); assay: MIC of carbapenems for isolates; format: cell-based; conditions: 1 isolate
[4] = system: Citrobacter freundii (NDM); assay: MIC of carbapenems for isolates; format: cell-based; conditions: 1 isolate
[5] = system: Enterobacter cloacae (NDM); assay: MIC of carbapenems for isolates; format: cell-based; conditions: 2 isolates
Escherichia coli (NDM) = assay: MIC of carbapenems for isolates; format: cell-based; conditions: 4 isolates
[6] = system: Klebsiella pneumoniae (NDM); assay: MIC of carbapenems for isolates; format: cell-based; conditions: 1 isolate
[7] = system: Morganella morganii (NDM); assay: MIC of carbapenems for isolates; format: cell-based; conditions: 1 isolate
[8] = system: Enterobacter cloacae (VIM); assay: MIC of carbapenems for isolates; format: cell-based; conditions: 1 isolate
Klebsiella oxytoca (VIM) = assay: MIC of carbapenems for isolates; format: cell-based; conditions: 1 isolate
[9] = system: Klebsiella pneumoniae (VIM); assay: MIC of carbapenems for isolates; format: cell-based; conditions: 1 isolate
Escherichia coli (IMP) = assay: MIC of carbapenems for isolates; format: cell-based; conditions: 1 isolate
[10] = system: Citrobacter freundii (OXA); assay: MIC of carbapenems for isolates; format: cell-based; conditions: 1 isolate
[11] = system: Klebsiella pneumoniae (NDM/OXA); assay: MIC of carbapenems for isolates; format: cell-based; conditions: NDM/OXA co-producing, 1 isolate
[12] = system: Citrobacter freundii (non-CP-CRE); assay: MIC of carbapenems for isolates; format: cell-based; conditions: 1 isolate
[13] = system: Enterobacter cloacae (non-CP-CRE); assay: MIC of carbapenems for isolates; format: cell-based; conditions: 10 isolates
[14] = system: Escherichia coli (non-producer); assay: MIC of carbapenems for isolates; format: cell-based; conditions: 32 isolates
[15] = system: Klebsiella pneumoniae (non-producer); assay: MIC of carbapenems for isolates; format: cell-based; conditions: 21 isolates
Escherichia coli (OXA) = assay: MIC of carbapenems for isolates; format: cell-based; conditions: 3 isolates
[16] = system: Klebsiella pneumoniae (OXA); assay: MIC of carbapenems for isolates; format: cell-based; conditions: 2 isolates
[17] = system: Enterobacter amnigenus (non-CP-CRE); assay: MIC of carbapenems for isolates; format: cell-based; conditions: Lelliottia amnigena, 4 isolates
[18] = system: Escherichia coli (non-CP-CRE); assay: MIC of carbapenems for isolates; format: cell-based; conditions: 8 isolates
[19] = system: Klebsiella aerogenes (non-CP-CRE); assay: MIC of carbapenems for isolates; format: cell-based; conditions: 3 isolates
[20] = system: Klebsiella pneumoniae (non-CP-CRE); assay: MIC of carbapenems for isolates; format: cell-based; conditions: 22 isolates
[21] = system: Klebsiella pneumoniae (ESBL-producer, CTX-M); assay: MIC of carbapenems for isolates; format: cell-based; conditions: 24 isolates
GES [22] = assay: Fluorescent probe detection in lysed clinical isolates; format: biochemical, Enterobacteriaceae; conditions: Ambler class A, 2 isolates
Experimental: (§1) The detection efficiency of carbapenemase-producing carbapenem-resistant bacteria of a control probe OMCL01201 (CPC-1 described in Chinese Patent Publication No. CN106279178A) and the OMCL01203 probe of the present disclosure was evaluated at Gangnam St. Mary's Hospital for the bacteria described in Table 1.
(§2) Briefly, 10 μL of a sample was lysed with a Tris-HCl buffer (B-PER, Thermo Scientific Pierce) and then vortexed for 1 minute. After culturing for 30 minutes at room temperature and centrifuging for 5 minutes (10,000 g), 30 μL of the supernatant was reacted with 100 μL of PBS and 13 μL of the fluorescent probe (1 mM). Then, fluorescence was measured for 50 minutes with 5-minute intervals using a fluorescence plate reader (Infinite F200pro, Tecan Group Ltd.).

IMP [23] = assay: as above; format: biochemical, Enterobacteriaceae; conditions: Ambler class B, 1 isolate
Experimental: as §1, §2

KPC/OXA [24] = assay: as above; format: biochemical, Enterobacteriaceae; conditions: KPC/OXA co-producing; 2 isolates
Experimental: as §1, §2

KPC [25] = assay: as above; format: biochemical, Enterobacteriaceae; conditions: Ambler class A, 33 isolates
Experimental: as §1, §2

NDM/OXA [26] = assay: as above; format: biochemical, Enterobacteriaceae; conditions: NDM/OXA co-producing; 1 isolate
Experimental: as §1, §2

NDM [27] = assay: as above; format: biochemical, Enterobacteriaceae; conditions: Ambler class B, 9 isolates
Experimental: as §1, §2

OXA [28] = assay: as above; format: biochemical, Enterobacteriaceae; conditions: Ambler class D, 6 isolates
Experimental: as §1, §2

VIM [29] = assay: as above; format: biochemical, Enterobacteriaceae; conditions: Ambler class B, 7 isolates
Experimental: as §1, §2

[30] = system: CPE (carbapenemase-producing Enterobacteriaceae); assay: as above; format: biochemical; conditions: CPE total; 61 isolates
Experimental: as §1, §2

Non-CP CRE = assay: as above; format: biochemical
Experimental: as §1, §2

CTX-M (ESBL-producer) = assay: Fluorogenic assay (OMCL01203 probe); format: biochemical; design: key: Pos, positive; Neg, negative
Experimental: as §2
(§3) In addition, the detection efficiency of the fluorescence detection method using the OMCL01203 probe was compared for carbapenemase-producing carbapenem-resistant bacteria (CP-CRE) and non-carbapenemase-producing carbapenem-resistant bacteria (non-CP-CRE) with mCIM, CarbaNP and CIT methods.

GES [31] = assay: Fluorogenic assay (OMCL01203 probe); format: biochemical; design: key: Pos, positive; Neg, negative; conditions: Escherichia coli, 2 isolates
Experimental: as §2, §3

IMP [32] = assay: Fluorogenic assay (OMCL01203 probe); format: biochemical; design: key: Pos, positive; Neg, negative; conditions: Escherichia coli, 1 isolate
Experimental: as §2, §3

KPC/OXA [33] = assay: Fluorogenic assay (OMCL01203 probe); format: biochemical; design: key: Pos, positive; Neg, negative; conditions: KPC/OXA co-producing; Klebsiella pneumoniae; 2 isolates
Experimental: as §2, §3

KPC [34] = assay: Fluorogenic assay (OMCL01203 probe); format: biochemical; design: key: Pos, positive; Neg, negative
Experimental: as §2, §3

NDM/OXA [35] = assay: Fluorogenic assay (OMCL01203 probe); format: biochemical; design: key: Pos, positive; Neg, negative; conditions: NDM/OXA co-producing; Klebsiella pneumoniae; 1 isolate
Experimental: as §2, §3

NDM [36] = assay: Fluorogenic assay (OMCL01203 probe); format: biochemical; design: key: Pos, positive; Neg, negative
Experimental: as §2, §3

OXA [37] = assay: Fluorogenic assay (OMCL01203 probe); format: biochemical; design: key: Pos, positive; Neg, negative
Experimental: as §2, §3

VIM [38] = assay: Fluorogenic assay (OMCL01203 probe); format: biochemical; design: key: Pos, positive; Neg, negative
Experimental: as §2, §3

non-CP-CRE = assay: Fluorogenic assay (OMCL01203 probe); format: biochemical; design: key: Pos, positive; Neg, negative
Experimental: as §2, §3

non-producer = assay: Fluorogenic assay (OMCL01203 probe); format: biochemical; design: key: Pos, positive; Neg, negative
Experimental: as §2, §3

GES [39] = assay: Fluorogenic assay (OMCL01203 probe); format: biochemical; conditions: Klebsiella pneumoniae, 1 isolate
Experimental: as §2, §3

OXA [40] = assay: Fluorogenic assay (OMCL01203 probe); format: biochemical; conditions: Escherichia coli, 3 isolates, number of isolates in brackets
Experimental: as §2, §3

[41] = system: non-CPE (negative bacteria); assay: Fluorogenic assay (OMCL01203 probe), all non-CPE of Table 2; format: biochemical
Experimental: as §2, §3

[42] = Citrobacter freundii, 1 isolate
[43] = Klebsiella pneumoniae, 1 isolate

C[C@@H](O)[C@H]1C(=O)N2C(C(=O)O)=C(S[C@@H]3CN[C@H](C(=O)Nc4cccc(C(=O)O)c4)C3)[C@H](C)[C@H]12 [ERT, ertapenem]
MIC [1]: > 16 µg/mL | MIC (Escherichia coli (KPC)): 8 µg/mL | MIC [2]: > 16 µg/mL | MIC (Klebsiella oxytoca (KPC)): > 16 µg/mL | MIC [3]: > 16 µg/mL | MIC [4]: > 16 µg/mL | MIC [5]: > 16 µg/mL | MIC (Escherichia coli (NDM)): > 16 µg/mL | MIC [6]: > 16 µg/mL | MIC [7]: 2 µg/mL | MIC [8]: 1 µg/mL | MIC (Klebsiella oxytoca (VIM)): 0.5 µg/mL | MIC [9]: > 16 µg/mL | MIC (Escherichia coli (IMP)): 4 µg/mL | MIC [10]: 1 µg/mL | MIC [11]: 16 µg/mL | MIC [12]: 2 µg/mL | MIC [13]: 2 to 16 µg/mL | MIC [14]: ≤ 0.125 µg/mL | MIC [15]: ≤ 0.125 µg/mL

C[C@@H](O)[C@H]1C(=O)N2C(C(=O)O)=C(S[C@@H]3CN[C@H](C(=O)N(C)C)C3)[C@H](C)[C@H]12 [MEM, meropenem]
MIC [1]: 8 µg/mL | MIC (Escherichia coli (KPC)): 4 µg/mL | MIC [2]: 16 µg/mL | MIC (Klebsiella oxytoca (KPC)): > 16 µg/mL | MIC [3]: > 16 µg/mL | MIC [4]: 16 µg/mL | MIC [5]: > 16 µg/mL | MIC (Escherichia coli (NDM)): > 16 µg/mL | MIC [6]: > 16 µg/mL | MIC [7]: 4 µg/mL | MIC [8]: 2 µg/mL | MIC (Klebsiella oxytoca (VIM)): 1 µg/mL | MIC [9]: > 16 µg/mL | MIC (Escherichia coli (IMP)): 1 µg/mL | MIC [10]: 0.5 µg/mL | MIC (Escherichia coli (OXA)): 0.25 to 4 µg/mL | MIC [16]: 0.5 to 16 µg/mL | MIC [11]: 4 µg/mL | MIC [12]: 0.5 µg/mL | MIC [17]: 2 to 8 µg/mL | MIC [18]: 0.25 to 8 µg/mL | MIC [19]: 0.5 to 16 µg/mL | MIC [20]: 0.5 to 8 µg/mL | MIC [21]: ≤ 0.25 µg/mL | MIC [14]: ≤ 0.25 µg/mL | MIC [15]: ≤ 0.25 µg/mL

C[C@@H](O)[C@H]1C(=O)N2C(C(=O)O)=C(COc3ccc(COc4ccc5ccc(=O)oc5c4)cc3)[C@H](C)[C@H]12 [OMCL01203]
Pos. % (GES [22]): 100% | result(s) (isolates determined positive) (GES [22]): 2 | Pos. % (IMP [23]): 100% | result(s) (isolates determined positive) (IMP [23]): 1 | Pos. % (KPC/OXA [24]): 100% | result(s) (isolates determined positive) (KPC/OXA [24]): 2 | Pos. % (KPC [25]): 100% | result(s) (isolates determined positive) (KPC [25]): 33 | Pos. % (NDM/OXA [26]): 100% | result(s) (isolates determined positive) (NDM/OXA [26]): 1 | Pos. % (NDM [27]): 89% | result(s) (isolates determined positive) (NDM [27]): 8 | Pos. % (OXA [28]): 83% | result(s) (isolates determined positive) (OXA [28]): 5 | Pos. % (VIM [29]): 100% | result(s) (isolates determined positive) (VIM [29]): 7 | Pos. % [30]: 97% | result(s) (isolates determined positive) [30]: 59 | Pos. % (Non-CP CRE; Non-CP CRE, 40 isolates): 0% | result(s) (isolates determined positive) (Non-CP CRE; Non-CP CRE, 40 isolates): 0 | determination of non-CPE species (Non-CP CRE; all 40 non-CPE species): negative | Fluore result (CTX-M (ESBL-producer); Escherichia coli, 29 isolates): Neg | Fluore result (CTX-M (ESBL-producer); Klebsiella pneumoniae, 24 isolates): Neg | Fluore result (GES [31]): Pos | Fluore result (IMP [32]): Pos | Fluore result (KPC/OXA [33]): Pos | Fluore result (KPC [34]; [42]): Pos | Fluore result (KPC [34]; Escherichia coli, 3 isolates): Pos | Fluore result (KPC [34]; Klebsiella aerogenes, 1 isolate): Pos | Fluore result (KPC [34]; Klebsiella oxytoca, 1 isolate): Pos | Fluore result (KPC [34]; Klebsiella pneumoniae, 30 isolates): Pos | Fluore result (NDM/OXA [35]): Pos | Fluore result (NDM [36]; [42]): Pos | Fluore result (NDM [36]; Enterobacter cloacae, 2 isolates): Pos | Fluore result (NDM [36]; Escherichia coli, 4 isolates): Pos | Fluore result (NDM [36]; [43]): Pos | Fluore result (NDM [36]; Morganella morganii, 1 isolate): Pos | Fluore result (OXA [37]; [42]): Pos | Fluore result (OXA [37]; Klebsiella pneumoniae, 2 isolates): Pos | Fluore result (VIM [38]; Citrobacter freundii, 4 isolates): Pos | Fluore result (VIM [38]; Enterobacter cloacae, 1 isolate): Pos | Fluore result (VIM [38]; Klebsiella oxytoca, 1 isolate): Pos | Fluore result (VIM [38]; [43]): Pos | Fluore result (non-CP-CRE; [42]): Neg | Fluore result (non-CP-CRE; Enterobacter amnigenus, 4 isolates): Neg | Fluore result (non-CP-CRE; Enterobacter cloacae, 10 isolates): Neg | Fluore result (non-CP-CRE; Escherichia coli, 8 isolates): Neg | Fluore result (non-CP-CRE; Klebsiella aerogenes, 3 isolates): Neg | Fluore result (non-CP-CRE; Klebsiella pneumoniae, 22 isolates): Neg | Fluore result (non-producer; Escherichia coli, 32 isolates): Neg | Fluore result (non-producer; Klebsiella pneumoniae, 21 isolates): Neg | Fluore result (GES [39]): Neg(1) | Fluore result (OXA [40]; isolates testing negative): Neg(2) | Fluore result (OXA [40]; isolates testing positive): Pos(1); | determination of negative bacteria [41]: negative
